Results on 33 compounds are retold here after BindingDB's records for doi:10.1016/s0960-894x(99)00004-9 (Smithkline Beecham Pharmaceuticals, 1999).

Test [1] is described as follows: Inhibitory activity against cytomegalovirus (CMV) protease was determined using quenched fluorescence assay.
A short description of test [2]: Inhibitory activity against Varicella Zoster Virus (VZV) protease was determined using quenched fluorescence assay.

For the compound `Cc1csc2nc([C@H](C)NC(=O)/C=C/c3cccn3C)oc(=O)c12` [(E)-N-[(S)-1-(5-Methyl-4-oxo-4H-thieno[2,3-d][1,3]oxazin-2-yl)-ethyl]-3-(1-methyl-1H-pyrrol-2-yl)-acrylamide], the IC50 in test [1] stood at 220 nM; in test [2] it was 29 nM.
`Cc1csc2nc([C@H](C)NC(=O)/C=C/c3ccnc4ccccc34)oc(=O)c12` [(E)-N-[(S)-1-(5-Methyl-4-oxo-4H-thieno[2,3-d][1,3]oxazin-2-yl)-ethyl]-3-quinolin-4-yl-acrylamide]: the IC50 was determined as 1100 nM in test [1] and 19 nM in test [2].
In the same order, the values of `Cc1csc2nc([C@H](C)NC(=O)/C=C/c3ccc([N+](=O)[O-])cc3)oc(=O)c12` [(E)-N-[(S)-1-(5-Methyl-4-oxo-4H-thieno[2,3-d][1,3]oxazin-2-yl)-ethyl]-3-(4-nitro-phenyl)-acrylamide] are 3600 nM and 60 nM.
In the same order, the values of `Cc1csc2nc([C@H](C)NC(=O)/C=C/c3cc(Br)cs3)oc(=O)c12` [(E)-3-(4-Bromo-thiophen-2-yl)-N-[(S)-1-(5-methyl-4-oxo-4H-thieno[2,3-d][1,3]oxazin-2-yl)-ethyl]-acrylamide] are 1120 nM and 33 nM.
In the same order, the values of `Cc1csc2nc([C@H](C)NC(=O)/C=C(\c3ccccc3)c3cccs3)oc(=O)c12` [(E)-N-[(S)-1-(5-Methyl-4-oxo-4H-thieno[2,3-d][1,3]oxazin-2-yl)-ethyl]-3-phenyl-3-thiophen-2-yl-acrylamide] are 300 nM and 16 nM.
Regarding `Cc1cc(/C=C/C(=O)N[C@@H](C)c2nc3scc(C)c3c(=O)o2)c(C)s1` [(E)-3-(2,5-Dimethyl-thiophen-3-yl)-N-[(S)-1-(5-methyl-4-oxo-4H-thieno[2,3-d][1,3]oxazin-2-yl)-ethyl]-acrylamide], the IC50 came to 230 nM in test [1] and 7 nM in test [2].
In the same order, the values of `Cc1csc2nc([C@H](C)NC(=O)/C=C/c3ccccc3)oc(=O)c12` [(E)-N-[(S)-1-(5-Methyl-4-oxo-4H-thieno[2,3-d][1,3]oxazin-2-yl)-ethyl]-3-phenyl-acrylamide] are 500 nM and 38 nM.
In the same order, the values of `Cc1csc2nc([C@H](C)NC(=O)/C=C/c3ccc([N+](=O)[O-])s3)oc(=O)c12` [(E)-N-[(S)-1-(5-Methyl-4-oxo-4H-thieno[2,3-d][1,3]oxazin-2-yl)-ethyl]-3-(5-nitro-thiophen-2-yl)-acrylamide] are 900 nM and 54 nM.
In the same order, the values of `Cc1csc2nc([C@H](C)NC(=O)C=C(c3ccccc3)c3ccccc3)oc(=O)c12` [N-[(S)-1-(5-Methyl-4-oxo-4H-thieno[2,3-d][1,3]oxazin-2-yl)-ethyl]-3,3-diphenyl-acrylamide] are 910 nM and 37 nM.
Take `Cc1csc2nc([C@H](C)NC(=O)/C=C/c3sccc3Br)oc(=O)c12` [(E)-3-(3-Bromo-thiophen-2-yl)-N-[(S)-1-(5-methyl-4-oxo-4H-thieno[2,3-d][1,3]oxazin-2-yl)-ethyl]-acrylamide]: the IC50 in test [1] came to 1110 nM; in test [2] it was 58 nM.
In the same order, the values of `Cc1csc2nc([C@H](C)NC(=O)C=C(c3cccs3)c3cccs3)oc(=O)c12` [N-[(S)-1-(5-Methyl-4-oxo-4H-thieno[2,3-d][1,3]oxazin-2-yl)-ethyl]-3,3-di-thiophen-2-yl-acrylamide] are 250 nM and 42 nM.
`Cc1csc2nc([C@H](C)NC(=O)/C=C/c3ccsc3)oc(=O)c12` [(E)-N-[(S)-1-(5-Methyl-4-oxo-4H-thieno[2,3-d][1,3]oxazin-2-yl)-ethyl]-3-thiophen-3-yl-acrylamide] yielded an IC50 in test [2] of 89 nM. This counts as double-digit nanomolar.
Take `Cc1csc2nc([C@H](C)NC(=O)/C=C/c3ccccn3)oc(=O)c12` [(E)-N-[(S)-1-(5-Methyl-4-oxo-4H-thieno[2,3-d][1,3]oxazin-2-yl)-ethyl]-3-pyridin-2-yl-acrylamide]: the IC50 in test [1] was determined as 1240 nM; in test [2], 170 nM.
In the same order, the values of `CCOc1ccccc1/C=C/C(=O)N[C@@H](C)c1nc2scc(C)c2c(=O)o1` [(E)-3-(2-Ethoxy-phenyl)-N-[(S)-1-(5-methyl-4-oxo-4H-thieno[2,3-d][1,3]oxazin-2-yl)-ethyl]-acrylamide] are 510 nM and 15 nM.
In the same order, the values of `Cc1ccsc1/C=C/C(=O)N[C@@H](C)c1nc2scc(C)c2c(=O)o1` [(E)-N-[(S)-1-(5-Methyl-4-oxo-4H-thieno[2,3-d][1,3]oxazin-2-yl)-ethyl]-3-(3-methyl-thiophen-2-yl)-acrylamide] are 670 nM and 290 nM.
For the compound `COc1cccc(OC)c1/C=C/C(=O)N[C@@H](C)c1nc2scc(C)c2c(=O)o1` [(E)-3-(2,6-Dimethoxy-phenyl)-N-[(S)-1-(5-methyl-4-oxo-4H-thieno[2,3-d][1,3]oxazin-2-yl)-ethyl]-acrylamide], the IC50 is 21000 nM in test [1] and 180 nM in test [2].
In the same order, the values of `Cc1csc2nc([C@H](C)NC(=O)/C=C/c3ccsc3Br)oc(=O)c12` [(E)-3-(2-Bromo-thiophen-3-yl)-N-[(S)-1-(5-methyl-4-oxo-4H-thieno[2,3-d][1,3]oxazin-2-yl)-ethyl]-acrylamide] are 620 nM and 51 nM.
In the same order, the values of `Cc1csc2nc([C@H](C)NC(=O)/C=C/c3ccc(N(C)C)cc3)oc(=O)c12` [(E)-3-(4-Dimethylamino-phenyl)-N-[(S)-1-(5-methyl-4-oxo-4H-thieno[2,3-d][1,3]oxazin-2-yl)-ethyl]-acrylamide] are 1800 nM and 38 nM.
In the same order, the values of `Cc1csc2nc([C@H](C)NC(=O)/C=C/c3ccc(Br)o3)oc(=O)c12` [(E)-3-(5-Bromo-furan-2-yl)-N-[(S)-1-(5-methyl-4-oxo-4H-thieno[2,3-d][1,3]oxazin-2-yl)-ethyl]-acrylamide] are 180 nM and 41 nM.
`Cc1csc2nc([C@H](C)NC(=O)/C=C/c3c(Cl)cccc3Cl)oc(=O)c12` [(E)-3-(2,6-Dichloro-phenyl)-N-[(S)-1-(5-methyl-4-oxo-4H-thieno[2,3-d][1,3]oxazin-2-yl)-ethyl]-acrylamide]: the IC50 in test [1] was over 34000 nM; in test [2] it was 10 nM.
For `Cc1csc2nc([C@H](C)NC(=O)/C=C/c3c(F)cccc3Cl)oc(=O)c12` [(E)-3-(2-Chloro-6-fluoro-phenyl)-N-[(S)-1-(5-methyl-4-oxo-4H-thieno[2,3-d][1,3]oxazin-2-yl)-ethyl]-acrylamide], the IC50 in test [1] worked out at 2000 nM; in test [2] it was 36 nM.
Turning to `Cc1ccccc1/C=C/C(=O)N[C@@H](C)c1nc2scc(C)c2c(=O)o1` [(E)-N-[(S)-1-(5-Methyl-4-oxo-4H-thieno[2,3-d][1,3]oxazin-2-yl)-ethyl]-3-o-tolyl-acrylamide], the IC50 in test [2] came out at 36 nM.
With `Cc1csc2nc([C@H](C)NC(=O)/C=C/c3ccccc3[N+](=O)[O-])oc(=O)c12` [(E)-N-[(S)-1-(5-Methyl-4-oxo-4H-thieno[2,3-d][1,3]oxazin-2-yl)-ethyl]-3-(2-nitro-phenyl)-acrylamide], the IC50 came to 2200 nM in test [1] and 76 nM in test [2].
In the same order, the values of `Cc1csc2nc([C@H](C)NC(=O)/C=C/c3ccccc3Br)oc(=O)c12` [(E)-3-(2-Bromo-phenyl)-N-[(S)-1-(5-methyl-4-oxo-4H-thieno[2,3-d][1,3]oxazin-2-yl)-ethyl]-acrylamide] are 380 nM and 39 nM.
In the same order, the values of `Cc1csc2nc([C@H](C)NC(=O)/C=C/c3ccc(Br)s3)oc(=O)c12` [(E)-3-(5-Bromo-thiophen-2-yl)-N-[(S)-1-(5-methyl-4-oxo-4H-thieno[2,3-d][1,3]oxazin-2-yl)-ethyl]-acrylamide] are 210 nM and 8 nM.
The compound `Cc1csc2nc([C@H](C)NC(=O)/C=C/c3cccc(Cl)c3)oc(=O)c12` [(E)-3-(3-Chloro-phenyl)-N-[(S)-1-(5-methyl-4-oxo-4H-thieno[2,3-d][1,3]oxazin-2-yl)-ethyl]-acrylamide] came in with an IC50 in test [2] of 42 nM.
As for `Cc1csc2nc([C@H](C)NC(=O)/C=C/c3ccc(Cl)s3)oc(=O)c12` [(E)-3-(5-Chloro-thiophen-2-yl)-N-[(S)-1-(5-methyl-4-oxo-4H-thieno[2,3-d][1,3]oxazin-2-yl)-ethyl]-acrylamide], the IC50 in test [1] amounted to 280 nM; in test [2], 17 nM.
For the compound `Cc1ccc(/C=C/C(=O)N[C@@H](C)c2nc3scc(C)c3c(=O)o2)s1` [(E)-N-[(S)-1-(5-Methyl-4-oxo-4H-thieno[2,3-d][1,3]oxazin-2-yl)-ethyl]-3-(5-methyl-thiophen-2-yl)-acrylamide], the IC50 turned out to be 580 nM in test [1] and 33 nM in test [2].
In the case of `Cc1csc2nc([C@H](C)NC(=O)/C=C/c3ccc(O)cc3Cl)oc(=O)c12` [(E)-3-(2-Chloro-4-hydroxy-phenyl)-N-[(S)-1-(5-methyl-4-oxo-4H-thieno[2,3-d][1,3]oxazin-2-yl)-ethyl]-acrylamide], in test [2], the IC50 came to 15 nM.
On to `COc1cc(/C=C/C(=O)N[C@@H](C)c2nc3scc(C)c3c(=O)o2)cc(OC)c1` [(E)-3-(3,5-Dimethoxy-phenyl)-N-[(S)-1-(5-methyl-4-oxo-4H-thieno[2,3-d][1,3]oxazin-2-yl)-ethyl]-acrylamide], for which the IC50 was 8500 nM in test [1] and 21 nM in test [2].
As to `Cc1csc2nc([C@H](C)NC(=O)/C=C/c3c(F)cccc3F)oc(=O)c12` [(E)-3-(2,6-Difluoro-phenyl)-N-[(S)-1-(5-methyl-4-oxo-4H-thieno[2,3-d][1,3]oxazin-2-yl)-ethyl]-acrylamide], the values for the 50% inhibitory concentration (IC50) in test [1] and in test [2] were 1700 nM and 60 nM, respectively.
In the same order, the values of `Cc1csc2nc([C@H](C)NC(=O)/C=C/c3ccccc3Cl)oc(=O)c12` [(E)-3-(2-Chloro-phenyl)-N-[(S)-1-(5-methyl-4-oxo-4H-thieno[2,3-d][1,3]oxazin-2-yl)-ethyl]-acrylamide] are 380 nM and 35 nM.
In the same order, the values of `Cc1csc2nc([C@H](C)NC(=O)/C=C/c3ccc(C=O)cc3)oc(=O)c12` [(E)-3-(4-Formyl-phenyl)-N-[(S)-1-(5-methyl-4-oxo-4H-thieno[2,3-d][1,3]oxazin-2-yl)-ethyl]-acrylamide] are 2400 nM and 94 nM.
